# Assay results reported in publication PMC11822212, “High-throughput screening identifies Aurora kinase B as a critical therapeutic target for Merkel cell carcinoma” (Nature Communications, 2025).
# Like-named read-outs stand apart in the source and are kept apart here.
# What was measured:
# [1] = test system: VP-MCC cell lines (WAGA, MKL-1, MKL-2); assay: qHTS cell viability, VP-MCC cell lines as a group (mean AUC, VP.MCC.avg); format: cell-based, human
# MCC26 cells (VN-MCC) = assay: qHTS cell viability (CellTiter-Glo, 72 h; primary and follow-up small molecule screen); format: cell-based, human
# NIH-3T3 cells = assay: qHTS cell viability (CellTiter-Glo, 72 h; primary screen), control cell line; format: cell-based, mouse
# [2] = test system: VN-MCC cell lines (MCC13, MCC26, UISO); assay: qHTS cell viability, VN-MCC cell lines as a group (mean AUC, VN.MCC.avg); format: cell-based, human
# WAGA cells (VP-MCC) = assay: qHTS cell viability (CellTiter-Glo, 72 h; primary and follow-up small molecule screen); format: cell-based, human
# HEK293T cells = assay: qHTS cell viability (CellTiter-Glo, 72 h; primary screen), control cell line; format: cell-based, human
# [3] = test system: six MCC cell lines and four control cell lines; assay: qHTS cell viability, all 10 cell lines screened; format: cell-based
# [4] = test system: MCC cell lines (WAGA, MKL-1, MKL-2, MCC13, MCC26, UISO); assay: qHTS cell viability, all six MCC cell lines as a group (mean AUC, MCC.avg); format: cell-based, human
# CRL-7250 cells = assay: qHTS cell viability (CellTiter-Glo, 72 h; primary screen), control cell line; format: cell-based
# MKL-1 cells (VP-MCC) = assay: qHTS cell viability (CellTiter-Glo, 72 h; primary and follow-up small molecule screen); format: cell-based, human
# MCC13 cells (VN-MCC) = assay: as above; format: cell-based, human
# [5] = test system: control cell lines (HACAT, HEK293T, CRL-7250, NIH-3T3); assay: qHTS cell viability, control cell lines as a group (mean AUC, Control.avg); format: cell-based
# UISO cells (VN-MCC) = assay: qHTS cell viability (CellTiter-Glo, 72 h; primary and follow-up small molecule screen); format: cell-based, human
# MKL-2 cells (VP-MCC) = assay: as above; format: cell-based, human
# HACAT cells = assay: qHTS cell viability (CellTiter-Glo, 72 h; primary screen), control cell line; format: cell-based, human
# [6] = MIPE library, Control AUC minus VP-MCC AUC (therapeutic window), sheet S2E
# [7] = MIPE library, mean AUC of VP-MCC cell lines, sheet S2E
# [8] = MIPE library, 11-point DRC, sheet S2E
# [9] = MIPE library, 11-point DRC, control cell line, sheet S2E
# [10] = MIPE library, Control AUC minus VN-MCC AUC (therapeutic window), sheet S2E
# [11] = MIPE library, mean AUC of VN-MCC cell lines, sheet S2E
# [12] = MIPE library, Control AUC minus MCC AUC (therapeutic window), sheet S2E
# [13] = MIPE library, mean AUC of six MCC cell lines, sheet S2E
# [14] = MIPE library, mean AUC of control cell lines, sheet S2E
smiles,measurement,setting,value
CN(C)CC[C@H](CSc1ccccc1)Nc1ccc(S(=O)(=O)NC(=O)c2ccc(N3CCN(Cc4ccccc4-c4ccc(Cl)cc4)CC3)cc2)cc1[N+](=O)[O-] [ABT-737],Control-VP-MCC,[1]; [6],140.507
same,VP-MCC_Avg_AUC,[1]; [7],302.738
same,MCC26_AUC,MCC26 cells (VN-MCC); [8],472.052
same,NIH3T3_AUC,NIH-3T3 cells; [9],431.249
same,Control-VN-MCC,[2]; [10],-34.4381
same,VN-MCC_Avg_AUC,[2]; [11],477.683
same,WAGA_AUC,WAGA cells (VP-MCC); [8],285.196
same,HEK293T_AUC,HEK293T cells; [9],444.395
same,Control-MCC,[3]; [12],53.0346
same,MCC_Avg_AUC,[4]; [13],390.211
same,CRL7250_AUC,CRL-7250 cells; [9],467.3
same,MKL1_AUC,MKL-1 cells (VP-MCC); [8],334.511
same,MCC13_AUC,MCC13 cells (VN-MCC); [8],474.092
same,Control_Avg_AUC,[5]; [14],443.245
same,UISO_AUC,UISO cells (VN-MCC); [8],486.905
same,MKL2_AUC,MKL-2 cells (VP-MCC); [8],288.506
same,HACAT_AUC,HACAT cells; [9],430.037
CC(C)(C)CC(C)(C)c1ccc(OCCOCC[N+](C)(C)Cc2ccccc2)cc1 [Benzethonium chloride],Control-VP-MCC,[1],73.3469
same,VP-MCC_Avg_AUC,[1],349.456
same,Area under the dose-response curve (AUC) MCC26 Replicate 1,MCC26 cells (VN-MCC),408.1
same,Area under the dose-response curve (AUC) MCC26 Replicate 2,MCC26 cells (VN-MCC),395.1
same,Area under the dose-response curve (AUC) MCC26 Replicate 3,MCC26 cells (VN-MCC),422.7
same,MCC26_AUC,MCC26 cells (VN-MCC),468.704
same,NIH3T3_AUC,NIH-3T3 cells,461.959
same,Control-VN-MCC,[2],-24.3368
same,VN-MCC_Avg_AUC,[2],447.14
same,Area under the dose-response curve (AUC) WAGA Replicate 1,WAGA cells (VP-MCC),389.4
same,Area under the dose-response curve (AUC) WAGA Replicate 2,WAGA cells (VP-MCC),374.6
same,Area under the dose-response curve (AUC) WAGA Replicate 3,WAGA cells (VP-MCC),382.0
same,WAGA_AUC,WAGA cells (VP-MCC),367.918
same,HEK293T_AUC,HEK293T cells,369.337
same,Control-MCC,[3],24.505
same,MCC_Avg_AUC,[4],398.298
same,CRL7250_AUC,CRL-7250 cells,423.584
same,Area under the dose-response curve (AUC) MKL-1 Replicate 1,MKL-1 cells (VP-MCC),338.0
same,Area under the dose-response curve (AUC) MKL-1 Replicate 2,MKL-1 cells (VP-MCC),346.5
same,Area under the dose-response curve (AUC) MKL-1 Replicate 3,MKL-1 cells (VP-MCC),373.3
same,MKL1_AUC,MKL-1 cells (VP-MCC),344.624
same,Area under the dose-response curve (AUC) MCC13 Replicate 1,MCC13 cells (VN-MCC),446.4
same,Area under the dose-response curve (AUC) MCC13 Replicate 2,MCC13 cells (VN-MCC),458.8
same,Area under the dose-response curve (AUC) MCC13 Replicate 3,MCC13 cells (VN-MCC),480.2
same,MCC13_AUC,MCC13 cells (VN-MCC),470.477
same,Control_Avg_AUC,[5],422.803
same,Area under the dose-response curve (AUC) UISO Replicate 1,UISO cells (VN-MCC),363.2
same,Area under the dose-response curve (AUC) UISO Replicate 2,UISO cells (VN-MCC),392.4
same,Area under the dose-response curve (AUC) UISO Replicate 3,UISO cells (VN-MCC),362.8
same,UISO_AUC,UISO cells (VN-MCC),402.239
same,Area under the dose-response curve (AUC) MKL-2 Replicate 1,MKL-2 cells (VP-MCC),357.2
same,Area under the dose-response curve (AUC) MKL-2 Replicate 2,MKL-2 cells (VP-MCC),340.8
same,Area under the dose-response curve (AUC) MKL-2 Replicate 3,MKL-2 cells (VP-MCC),365.0
same,MKL2_AUC,MKL-2 cells (VP-MCC),335.827
same,HACAT_AUC,HACAT cells,436.332
O=C(CCc1ccc(O)cc1)c1c(O)cc(O)cc1O [Phloretin],Control-VP-MCC,[1]; [6],54.4642
same,VP-MCC_Avg_AUC,[1]; [7],415.4
same,MCC26_AUC,MCC26 cells (VN-MCC); [8],472.357
same,MCC26_AUC,"MCC26 cells (VN-MCC); area under the dose-response curve, MCC26 cells, AUC<450 = reduced viability",472.357
same,Area under the dose-response curve (AUC) MCC26 Replicate 1,"MCC26 cells (VN-MCC); follow-up screen, MCC26, replicate 1",472.4
same,Area under the dose-response curve (AUC) MCC26 Replicate 2,"MCC26 cells (VN-MCC); follow-up screen, MCC26, replicate 2",446.6
same,Area under the dose-response curve (AUC) MCC26 Replicate 3,"MCC26 cells (VN-MCC); follow-up screen, MCC26, replicate 3",497.7
same,NIH3T3_AUC,NIH-3T3 cells; [9],475.685
same,NIH3T3_AUC,"NIH-3T3 cells; area under the dose-response curve, NIH3T3 control cells, AUC<450 = reduced viability",475.685
same,Control-VN-MCC,[2]; [10],-6.696
same,VN-MCC_Avg_AUC,[2]; [11],476.56
same,WAGA_AUC,WAGA cells (VP-MCC); [8],402.295
same,WAGA_AUC,"WAGA cells (VP-MCC); area under the dose-response curve, WAGA cells, AUC<450 = reduced viability",402.295
same,Area under the dose-response curve (AUC) WAGA Replicate 1,"WAGA cells (VP-MCC); follow-up screen, WAGA, replicate 1",571.8
same,Area under the dose-response curve (AUC) WAGA Replicate 2,"WAGA cells (VP-MCC); follow-up screen, WAGA, replicate 2",490.2
same,Area under the dose-response curve (AUC) WAGA Replicate 3,"WAGA cells (VP-MCC); follow-up screen, WAGA, replicate 3",485.7
same,HEK293T_AUC,HEK293T cells; [9],470.007
same,HEK293T_AUC,"HEK293T cells; area under the dose-response curve, HEK293T control cells, AUC<450 = reduced viability",470.007
same,Control-MCC,[3]; [12],23.8842
same,MCC_Avg_AUC,[4]; [13],445.98
same,CRL7250_AUC,CRL-7250 cells; [9],456.981
same,CRL7250_AUC,"CRL-7250 cells; area under the dose-response curve, CRL7250 control cells, AUC<450 = reduced viability",456.981
same,MKL1_AUC,MKL-1 cells (VP-MCC); [8],433.632
same,MKL1_AUC,"MKL-1 cells (VP-MCC); area under the dose-response curve, MKL-1 cells, AUC<450 = reduced viability",433.632
same,Area under the dose-response curve (AUC) MKL-1 Replicate 1,"MKL-1 cells (VP-MCC); follow-up screen, MKL-1, replicate 1",526.8
same,Area under the dose-response curve (AUC) MKL-1 Replicate 2,"MKL-1 cells (VP-MCC); follow-up screen, MKL-1, replicate 2",492.2
same,Area under the dose-response curve (AUC) MKL-1 Replicate 3,"MKL-1 cells (VP-MCC); follow-up screen, MKL-1, replicate 3",497.0
same,MCC13_AUC,MCC13 cells (VN-MCC); [8],472.315
same,MCC13_AUC,"MCC13 cells (VN-MCC); area under the dose-response curve, MCC13 cells, AUC<450 = reduced viability",472.315
same,Area under the dose-response curve (AUC) MCC13 Replicate 1,"MCC13 cells (VN-MCC); follow-up screen, MCC13, replicate 1",534.6
same,Area under the dose-response curve (AUC) MCC13 Replicate 2,"MCC13 cells (VN-MCC); follow-up screen, MCC13, replicate 2",495.7
same,Area under the dose-response curve (AUC) MCC13 Replicate 3,"MCC13 cells (VN-MCC); follow-up screen, MCC13, replicate 3",492.0
same,Control_Avg_AUC,[5]; [14],469.864
same,UISO_AUC,UISO cells (VN-MCC); [8],485.008
same,UISO_AUC,"UISO cells (VN-MCC); area under the dose-response curve, UISO cells, AUC<450 = reduced viability",485.008
same,Area under the dose-response curve (AUC) UISO Replicate 1,"UISO cells (VN-MCC); follow-up screen, UISO, replicate 1",542.5
same,Area under the dose-response curve (AUC) UISO Replicate 2,"UISO cells (VN-MCC); follow-up screen, UISO, replicate 2",515.8
same,Area under the dose-response curve (AUC) UISO Replicate 3,"UISO cells (VN-MCC); follow-up screen, UISO, replicate 3",481.4
same,MKL2_AUC,MKL-2 cells (VP-MCC); [8],410.273
same,MKL2_AUC,"MKL-2 cells (VP-MCC); area under the dose-response curve, MKL-2 cells, AUC<450 = reduced viability",410.273
same,Area under the dose-response curve (AUC) MKL-2 Replicate 1,"MKL-2 cells (VP-MCC); follow-up screen, MKL-2, replicate 1",493.4
same,Area under the dose-response curve (AUC) MKL-2 Replicate 2,"MKL-2 cells (VP-MCC); follow-up screen, MKL-2, replicate 2",509.3
same,Area under the dose-response curve (AUC) MKL-2 Replicate 3,"MKL-2 cells (VP-MCC); follow-up screen, MKL-2, replicate 3",493.0
same,HACAT_AUC,HACAT cells; [9],476.785
same,HACAT_AUC,"HACAT cells; area under the dose-response curve, HACAT control cells, AUC<450 = reduced viability",476.785
